The subject of data set [1] is HCT116 cells. The data set is described as follows: MTT cell viability assay. Type of data set: cell-based, human. Particulars: for IC50: Homo sapiens. The procedure: HCT116 cells (1 × 10^3 cells/well) were seeded in 96-well plates and cell viability was determined using MTT (Sigma-Aldrich, USA). […] MTT (0.5 mg/ml) was added to the cells after 48 h of treatment and incubated for 3 h in dark at 37 °C. The generated formazan complexes were dissolved in DMSO and the absorbance were measured at 550 nm using a spectrophotometer (Infinite® 200 PRO, TECAN, Switzerland) (Bhowmik et al. [2013]).

For data set [2], the system named is CSC enriched spheres (CES) derived from HCT116 cells. The experiment in a line: Cellular ROS, NO and LPO level in CES. The note with it: 24 h, 26 µM Orientin, 13 µM 5FU, 14 µM Orientin + 7 µM 5FU. Type of data set: cell-based, human. The method, then: Reactive oxygen species (ROS) level in the cells of treated and untreated CESs was measured by 2′,7′-dichlorofluorescein diacetate (DCFH-DA) standard protocol (Bhattacharjee et al. [2014]). The production of nitric oxide (NO) were estimated by the level of stable NO metabolites, viz., nitrate (NO3^–) and nitrite (NO2^–) ions by reaction with Griess reagent (Bryan and Grisham [2007]). […]

The nature of data set [3]: Hepatic oxidative parameters and liver/kidney histopathology, 10 days treatment. Particulars: 5 mg/kg b.w i.v.; for kidney histopathology / liver histopathology: H&E. Type of data set: in vivo, BALB/c mice. The method, then:
To determine the toxicity of only Orientin treatment in various doses, the mice were divided into five groups. Each group contained six animals (n = 6). Each animal of the vehicle control group (VC) was left untreated, while, mice of other four groups were administered Orientin intravenously with 1 mg/kg b.w, 3 mg/kg b.w, 5 mg/kg b.w and 10 mg/kg b.w dosage respectively for 28 days. […] All the treatments were continued for 10 days. On day 11 all the mice were sacrificed and different parameters were studied.
Values of all the parameters were calculated with respect to the amount of total protein present in liver homogenates.
Various organs and solid tumors collected after sacrificing the mice were embedded into paraffin after 10% neutral buffered formalin fixation. 4 μm sections were prepared and used for histopathological study.

Data set [4] deals with HCT116 cells. The experiment in a line: Atomic force microscopy of cell morphology. Type of data set: cell-based, human. The note with it: HCT116, 24 h; 26 µM Orientin, 13 µM 5FU, 14 µM Orientin + 7 µM 5FU. The procedure:
The material properties and dimensions of the probe used in contact mode were as follows: resonance frequency of 13 kHz (± 4 kHz), force constant of 0.2 N/m (± 0.14 N/m), cantilever length of 450 µm (± 10 µm), cantilever width of 38 µm (± 5 µm), cantilever thickness of 2 µm (± 1 µm), tip radius of 5 nm (± 1 nm), and tip height of 17 µm (± 2 µm). The scan area depends on the size of the cancer cell and ranged from 20 × 10–30 × 20 µm^2. Image processing and data analysis were performed using Picoview 1.10 software.

Data set [5] has as its system CD44+/CD133+ CSC population in CES derived from HCT116 cells. The data set is described as follows: Flow cytometry of CD44+/CD133+ cells in tumorospheres. The format is cell-based, human. Particulars: 24 h, 26 µM Orientin, 13 µM 5FU, 14 µM Orientin + 7 µM 5FU, untreated 18.4%. The method, then: (§1) HCT116 CRC cells were grown in ultra-low attachment plate in 3dGRO™ Spheroid Medium (Sigma-Aldrich, USA) for 7 days. Spheroids enriched with CSCs were considered as CSC enriched spheres (CESs) or commonly referred as tumorospheres. After 7 days, tumorospheres were subjected to different treatments for 24 h, as per experimental protocol. Media of tumorospheres of all the treatment groups were collected, centrifuged to remove the cell debris and suspended spheres, supernatants were collected and vacuum concentrated. These supernatants were referred as conditioned medium (CM) and were stored at − 20 °C until use.
Percentages of CD44^+/CD133^+ cell population were determined within tumorospheres and HIF1α positive cells were determined within the CD44^+/CD133^+ cell population using a flow cytometer (BD LSRFortessa™ X-20) and analyzed by BD FACSDiva™ software.
Background: A flow cytometer gives signals particle by particle.

Data set [6] deals with HCT116 cells. The data set is described as follows: Annexin V/PI flow cytometry (apoptosis). The format is cell-based, human. The note with it: HCT116, 48 h, IC50 doses; untreated 7.9%. The method, then:
Percentage of apoptotic cells were detected by Annexin V and propidium Iodide (PI) staining by flow cytometry analysis according to the protocols provided by manufacturer of the kit (Invitrogen, USA). In brief, cells were washed with PBS, suspended in binding buffer followed by incubation with Annexin V and PI. Then, the cells were analysed by using a flow cytometer (BD LSRFortessaTM X-20).

In data set [7] the test system is CT26 cell induced solid tumor. The experiment in a line: CT26 syngeneic colorectal tumor model. Type of data set: in vivo, BALB/c mice. Particulars: for tumor volume: 10 days, Orientin 5 mg/kg b.w/day i.v., 5FU 5 mg/kg b.w i.v. alternate day; for tumor volume / survival (Kaplan Meier): vs control; for tumor tissue histopathology: H&E; for number of blood vessels in tumor tissue: H&E sections; for CD44+/CD133+ cells in tumor tissue / HIF1α and VEGFA expression in tumor: immunofluorescence; for survival (Kaplan Meier): tumor bearing mice. The procedure:
To set up therapeutic in vivo model, CT26 cells (2 × 10^6 cells/animal), syngeneic to BALB/c mice were injected subcutaneously to the right hind limb of the each animal. Palpable tumor was formed after 10 days. […] Six mice from each group were sacrificed on day 11 and the others were left for performing survivability assay using Kaplan–Meier method (Hajra et al. [2018a]).
Various organs and solid tumors collected after sacrificing the mice were embedded into paraffin after 10% neutral buffered formalin fixation. 4 μm sections were prepared and used for histopathological study. Standard Hematoxylin and Eosin (H&E) staining protocol was used and sections were visualized under light microscope (DM 1000, Leica, Germany) (Hajra et al. [2018a]).
Immunofluorescence assay was carried out as described previously (Shimizu et al. [2023]). Tissue sections were blocked with 3% BSA and incubated with primary antibodies like HIF1α, VEGFA, CD44 (Thermo Fisher Scientific, USA) and CD133 (Abcam, USA) at room temperature for 2 h. Alexa fluor 488 and Alexa fluor 594 tagged secondary (Thermo Fisher Scientific, USA) antibodies were added to all the tissue sections for 1 h followed by DAPI staining and images were visualized under fluorescence microscope (Olympus BX53, Japan).

The subject of data set [8] is CSC enriched spheres (CES) derived from HCT116 cells. The experiment in a line: Tumorosphere (CES) diameter and number. The note with it: 24 h, 5FU vs control, Orientin and combination vs 5FU. The format is cell-based, human. The method, then:
as §1

A further data set concerns HUVEC. The data set is described as follows: Sprout (tube) formation assay with conditioned medium of CES. Particulars: for sprout formation: numbers and length of tubes: HUVEC, 24 h with CM of treated CES. Type of data set: cell-based, human. The procedure:
as §1
Matrigel was thawed overnight and the plate was coated with Matrigel (BD Bioscience, USA) and incubated for 1 h for polymerization. HUVECs (1 × 10^4) were seeded onto the Matrigel coated plate. After 8 h, media were changed with CM of interest. After 24 h of treatment tube formation was visualized microscopically and photographs were captured (DM 1000, Leica, Germany). The tube numbers were quantified by counting the branches between two discrete endothelial cells and length of the tubes were measured using Image J software by drawing a line along each tube and measuring the length in micrometer.

The text below walks through data of PMC11881437 (Molecular Medicine, 2025).

The structures appear in SMILES notation. Like-named read-outs stand apart in the source and are kept apart here.

Broadly, the IC50 is the point on the concentration scale where inhibition reaches its midpoint. For `O=c1[nH]cc(F)c(=O)[nH]1` [5FU, 5-Fluorouracil, reference compound], the “reduction of IC50 in combination compared to individual treatment” value with HCT116 cells [1] (HCT116, MTT, 48 h) is “approximately 50%”. For the same compound, the IC50 in the data set with HCT116 cells [1] (HCT-116, HCT116, MTT, 48 h, used separately, read-out: IC50) came out at 13 µM. Also, the “ROS, NO and LPO production in tumorospheres” value in data set [2] is recorded as “increased”. Further, in data set [3], the “hepatic LPO, ROS and NO” value is reported as “induce”; the kidney histopathology result is “distorted Bowman’s capsule, glomeruli, blood and cellular infiltration”; the liver histopathology entry was “distorted central vein, necrosis, cellular and blood infiltration”. Further, the “hepatic GSH and activity of GST, GPx, SOD and CAT” value in [3] (5FU vs vehicle control, combination vs 5FU) is recorded as “reduced”. The “cell morphology by AFM” value in the data set on HCT116 cells [4] is “cell shrinkage, distortion, nuclear condensation and fragmentation, membrane blebbing and morphological changes of cellular bodies”. Moreover, the “CD44+/CD133+ cell population” value in data set [5] stood at 22.3%. In the data set on HCT116 cells [6], the “percentage of apoptotic cells” value is reported as 54.5%. Moreover, in data set [7], the tumor volume entry is listed as “decrease in the tumor volume”, the tumor tissue histopathology result was “cell numbers were found to be reduced”, the “number of blood vessels in tumor tissue” value is “increasing blood vessels number” and the “CD44+/CD133+ cells in tumor tissue” value is listed as “increased”. Also, in data set [7], the “HIF1α and VEGFA expression in tumor” value is given as “increase”; the “survival (Kaplan Meier)” value is reported as “increased life span”. Moreover, in data set [8], the diameter of spheres entry is given as “significantly increased” and the number of spheres result was “significantly increased”. Further, the “sprout formation: numbers and length of tubes” value in the data set with HUVEC is “instigated sprout formations by increasing the numbers and length of tubes”.

In the case of `O=c1cc(-c2ccc(O)c(O)c2)oc2c([C@@H]3O[C@H](CO)[C@@H](O)[C@H](O)[C@H]3O)c(O)cc(O)c12` [Orientin], the “reduction of IC50 in combination compared to individual treatment” value with HCT116 cells [1] (HCT116, MTT, 48 h) is on record as “approximately 50%”. Half-maximal inhibition in the data set with HCT116 cells [1] (HCT-116, 48 h) (IC50) was put at 26 µM. For the same compound, the “ROS, NO and LPO production in tumorospheres” value in data set [2] is “decrease”. In [3], the kidney histopathology entry is “did not induce any toxicity” and the liver histopathology result was “remained normal”. Besides, the “cell morphology by AFM” value in the data set with HCT116 cells [4] was “cell shrinkage, distortion, nuclear condensation and fragmentation, membrane blebbing and morphological changes of cellular bodies”. The “CD44+/CD133+ cell population” value in [5] is reported as 13.5%. The “percentage of apoptotic cells” value in the data set on HCT116 cells [6] is 49.3%. In addition, in data set [7], the tumor volume result was “decrease in the tumor volume”, the tumor tissue histopathology entry is reported as “lost their compactness”, the “number of blood vessels in tumor tissue” value is reported as “reduced” and the “CD44+/CD133+ cells in tumor tissue” value is recorded as “reduction”. Also, in data set [7], the “HIF1α and VEGFA expression in tumor” value is “decreased”; the “survival (Kaplan Meier)” value is recorded as “increased life span”. In data set [8], the diameter of spheres entry is listed as “significant decreases” and the number of spheres result was “significant decreases”. Besides, the “number of sprouting and length of tubes, comparison with VEGFA neutralizing antibody” value in the data set on HUVEC (HUVEC with CM of treated CES, 5 µg/ml VEGFA neutralizing antibody, 26 µM Orientin) is “same level of inhibition”. The “sprout formation: numbers and length of tubes” value in the data set on HUVEC is “remarkably reduced”.
